Assay results: PMC10061512 (ACS Omega, 2023)

Experiments:
amyloid β 1–42 peptide = amyloid β 1–42 peptide (Homo sapiens, UniProt P05067); assay: Aβ-42 self-aggregation inhibition assay; assay type: biochemical; conditions: read-out: inhibition of self-aggregation of Aβ1–42 monomers
hBACE-1 [1] = target: T1, hBACE-1 (Homo sapiens, UniProt P56817); conditions: Lineweaver–Burk double-reciprocal plot
eqBChE = eqBChE (Equus caballus, UniProt P81908); assay: BChE inhibition and enzyme kinetics, Ellman assay; assay type: biochemical, equine
EeAChE = EeAChE (Electrophorus electricus, UniProt O42275); assay: AChE inhibition and enzyme kinetics, Ellman assay; assay type: biochemical, electric eel
hBACE-1 [2] = target: T1, hBACE-1; assay: biochemical
[3] = PAMPA–BBB
in vitro = conditions: pig, PAMPA, pH 7.4
[4] = Lineweaver–Burk double-reciprocal plot

eqBChE, sequence (P81908 whole entry): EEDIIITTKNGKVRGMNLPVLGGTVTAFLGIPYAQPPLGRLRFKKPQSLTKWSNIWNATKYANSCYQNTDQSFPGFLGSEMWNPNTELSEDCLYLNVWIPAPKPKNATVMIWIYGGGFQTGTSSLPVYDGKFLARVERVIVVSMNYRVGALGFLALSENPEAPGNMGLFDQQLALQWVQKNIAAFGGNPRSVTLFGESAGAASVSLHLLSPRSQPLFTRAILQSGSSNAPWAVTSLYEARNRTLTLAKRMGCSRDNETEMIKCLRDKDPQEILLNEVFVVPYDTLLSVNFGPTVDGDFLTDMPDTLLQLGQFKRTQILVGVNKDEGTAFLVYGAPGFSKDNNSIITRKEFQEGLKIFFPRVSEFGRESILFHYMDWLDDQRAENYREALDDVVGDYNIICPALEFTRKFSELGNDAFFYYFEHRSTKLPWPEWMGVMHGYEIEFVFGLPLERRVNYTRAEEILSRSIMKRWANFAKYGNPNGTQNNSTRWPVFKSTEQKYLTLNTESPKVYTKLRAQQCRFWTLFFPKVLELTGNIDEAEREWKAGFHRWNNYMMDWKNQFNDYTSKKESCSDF
EeAChE, sequence (O42275 24-633): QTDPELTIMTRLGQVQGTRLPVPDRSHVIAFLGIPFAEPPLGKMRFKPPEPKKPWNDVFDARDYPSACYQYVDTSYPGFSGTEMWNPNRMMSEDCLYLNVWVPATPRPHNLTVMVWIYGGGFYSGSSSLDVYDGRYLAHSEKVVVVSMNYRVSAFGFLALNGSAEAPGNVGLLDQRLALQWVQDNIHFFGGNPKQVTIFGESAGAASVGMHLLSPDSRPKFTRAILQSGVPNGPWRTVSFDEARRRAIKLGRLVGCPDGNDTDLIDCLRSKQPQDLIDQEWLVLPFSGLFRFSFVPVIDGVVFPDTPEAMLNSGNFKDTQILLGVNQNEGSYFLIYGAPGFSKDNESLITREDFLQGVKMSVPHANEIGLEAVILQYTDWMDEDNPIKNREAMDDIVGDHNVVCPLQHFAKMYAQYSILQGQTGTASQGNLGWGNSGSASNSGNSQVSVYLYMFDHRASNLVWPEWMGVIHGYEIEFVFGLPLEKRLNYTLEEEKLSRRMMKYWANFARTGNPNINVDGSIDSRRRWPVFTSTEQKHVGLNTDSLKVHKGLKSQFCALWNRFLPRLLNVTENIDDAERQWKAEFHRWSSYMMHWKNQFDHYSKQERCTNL
T1 sequence (P56817 46-501): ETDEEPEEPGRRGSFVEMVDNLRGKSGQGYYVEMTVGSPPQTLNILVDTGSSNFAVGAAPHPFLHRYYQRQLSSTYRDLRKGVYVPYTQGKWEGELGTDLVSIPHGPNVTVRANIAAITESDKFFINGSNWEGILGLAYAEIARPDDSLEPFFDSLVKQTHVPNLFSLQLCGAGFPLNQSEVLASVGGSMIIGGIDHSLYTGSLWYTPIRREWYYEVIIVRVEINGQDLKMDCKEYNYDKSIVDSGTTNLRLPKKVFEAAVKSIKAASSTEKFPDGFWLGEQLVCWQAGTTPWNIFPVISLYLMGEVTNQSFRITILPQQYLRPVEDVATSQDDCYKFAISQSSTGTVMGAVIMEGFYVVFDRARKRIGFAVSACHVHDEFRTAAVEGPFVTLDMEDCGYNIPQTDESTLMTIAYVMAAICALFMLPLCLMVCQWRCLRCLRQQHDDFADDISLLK
amyloid β 1–42 peptide, sequence (P05067 672-713): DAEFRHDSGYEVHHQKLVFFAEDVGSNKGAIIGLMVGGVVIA

COc1cc(Cn2cc(COc3ccc4ccc(=O)oc4c3C(C)=O)nn2)cc(OC)c1 [10b, 8-Acetyl-7-((1-(3,5-dimethoxybenzyl)-1H-1,2,3-triazol-4-yl)methoxy)-2H-chromen-2-one]
inhibition at 10 µM (amyloid β 1–42 peptide): 37% | mode of inhibition, BACE-1 (hBACE-1 [1]): mixed type | IC50 (eqBChE): 3.26 ± 0.13 µM | Ki (eqBChE): 3.5 µM | mode of inhibition, BChE (eqBChE; [4]): mixed type | Ki (EeAChE): 0.27 µM | fold difference in AChE inhibition activity of 10b vs 19b (EeAChE; 10b vs 19b): 20 fold | IC50 (EeAChE; IC50 (μM) ± SD EeAChE, Ellman assay): 2.57 ± 0.31 µM | mode of inhibition, AChE (EeAChE; [4]): noncompetitive | Ki (hBACE-1 [2]): 7 µM | prediction of CNS permeation [3]: CNS+ | Papp (in vitro): 5.68 ± 1.1 ×10⁻⁶ cm/s
